Test results taken from US8722687B2, “Imidazo [1,2-A]pyridine derivatives as FGFR kinase inhibitors for use in therapy” (Astex Therapeutics Ltd, priority 2009, dated 2014).

What was measured:
Ba/F3-Flt3 cells [1] = target: T1, Ba/F3-Flt3 cells (Homo sapiens, UniProt P36888, cells depend on it, form not given); test: Ba/F3-Flt3 assay (Alamar Blue); type: cell-based, murine; conditions: without IL3
T1 construct: Ba/F3-flt3 − IL3 pIC50; other: without IL3
T1 sequence (P36888 1-993): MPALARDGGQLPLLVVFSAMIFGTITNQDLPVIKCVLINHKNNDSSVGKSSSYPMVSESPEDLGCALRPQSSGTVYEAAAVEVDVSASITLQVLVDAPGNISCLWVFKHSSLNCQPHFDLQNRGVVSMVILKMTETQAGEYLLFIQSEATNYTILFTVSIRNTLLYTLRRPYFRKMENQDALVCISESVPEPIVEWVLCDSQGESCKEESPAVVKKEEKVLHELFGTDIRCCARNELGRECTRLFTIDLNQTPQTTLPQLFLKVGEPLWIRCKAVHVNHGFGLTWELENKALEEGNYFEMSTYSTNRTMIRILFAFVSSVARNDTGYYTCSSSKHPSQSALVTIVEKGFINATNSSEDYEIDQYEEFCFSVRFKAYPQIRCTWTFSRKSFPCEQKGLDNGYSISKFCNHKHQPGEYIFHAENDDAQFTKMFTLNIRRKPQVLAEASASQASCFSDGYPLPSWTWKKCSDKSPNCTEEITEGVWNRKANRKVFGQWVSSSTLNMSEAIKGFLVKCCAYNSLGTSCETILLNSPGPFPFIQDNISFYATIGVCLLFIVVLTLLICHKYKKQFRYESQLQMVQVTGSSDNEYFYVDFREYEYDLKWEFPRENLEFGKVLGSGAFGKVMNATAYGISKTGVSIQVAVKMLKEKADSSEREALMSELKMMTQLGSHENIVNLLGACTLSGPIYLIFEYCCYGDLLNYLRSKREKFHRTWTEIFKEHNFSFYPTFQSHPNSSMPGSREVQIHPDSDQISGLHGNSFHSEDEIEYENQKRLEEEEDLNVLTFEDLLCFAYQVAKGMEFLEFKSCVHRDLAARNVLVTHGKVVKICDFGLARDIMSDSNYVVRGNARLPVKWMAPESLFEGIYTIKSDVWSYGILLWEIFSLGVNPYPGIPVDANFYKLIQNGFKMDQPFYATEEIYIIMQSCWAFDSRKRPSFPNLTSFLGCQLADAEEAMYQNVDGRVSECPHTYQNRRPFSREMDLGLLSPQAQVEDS
From the text: (§1) Ba/F3, a murine interleukin-3 dependent pro-B cell line is increasingly popular as a model system for assessing both the potency and downstream signaling of kinase oncogenes, and the ability of small-molecule kinase inhibitors to block kinase activity. Facilitated by their growth properties. Ba/F3 cells have recently been adapted to high throughput assay formats for compound profiling. Further, several published approaches show promise in predicting resistance to small-molecule kinase inhibitors elicited by point mutations interfering with inhibitor binding (Ba/F3 cells and their use in kinase drug discovery; Markus Warmuth, Sungjoon Kim, Xiang-ju Gu, Gang Xia and Francisco Adria'n; Curr Opin Oncol 19:55-60).
(§2) Ba/F3-Flt3 cells (cultured in phenol red free RPMI-1640, 10% A FCS and 50 μg/ml Gentamycin at 37° C. and 5% 002) were plated at a density of 10000 cells in a total volume of 180 μl medium in a black TC-treated sterile 96-well plate (Corning). After 24 hours, drugs in different dilutions were added to a final volume of 200 μl and at a final DMSO concentration of 0.2% prior to incubation at 37° C., and 5% CO2.
(§3) After 24 h, to each well 40 μl Alamar Blue solution (Aldrich) was added and the cells were further incubated for 4 hours at 37° C. Fluorescence (ex. 544, em. 590 nm) was measured using a fluorescence reader (Labsystems) and IC50's were calculated.
(§4) In the condition containing IL3, 10 ng/ml of murine IL3 (PeproTech) was added during compound incubation.

Ba/F3-Flt3 cells [2] = test: Ba/F3-Flt3 assay (Alamar Blue); type: cell-based, murine; conditions: Mus musculus, 24 h; with 10 ng/ml murine IL3; read-out: Ba/F3-flt3 + IL3 pIC50 (converted)
From the text: as §1, §2, §3, §4

Row | Ba/F3-flt3 − IL3 pIC50 (Ba/F3-Flt3 cells [1]) | IC50 (Ba/F3-Flt3 cells [2]) [µM] | SMILES
1 | <5 | > 10 | CC(C)Oc1cc(NC(=O)NCC(F)(F)F)cc(-c2cnc3cc(-c4nccc(C(C)C)n4)ccn23)c1 [Compound F-29, 1-{3-Isopropoxy-5-[7-(4-isopropyl-pyrimidin-2-yl)-imidazo[1,2-a]pyridin-3-yl]-phenyl}-3-(2,2,2-trifluoroethyl)-urea]
2 | <5 | > 10 | CC(C)Oc1cc(NC(=O)NCC(F)(F)F)cc(-c2cnc3cc(-c4ncccn4)ccn23)c1 [Compound F-2, 1-[3-Isopropoxy-5-(7-pyrimidin-2-yl-imidazo[1,2-a]pyridin-3-yl)-phenyl]-3-(2,2,2-trifluoro-ethyl)-urea]
3 | <5 | > 10 | Cc1cn(-c2ccn3c(-c4cc(NC(=O)NCC(F)(F)F)cc(OC(C)C)c4)cnc3c2)cn1 [Compound F-28, 1-{3-Isopropoxy-5-[7-(4-methylimidazol-1-yl)-imidazo[1,2-a]pyridin-3-yl]-phenyl}-3-(2,2,2-trifluoro-ethyl)-urea]
4 | <5 | > 10 | Cc1nnc(-c2ccn3c(-c4cc(NC(=O)NCC(F)(F)F)cc(OC(C)C)c4)cnc3c2)o1 [Compound F-5, 1-{3-Isopropoxy-5-[7-(5-methyl-[1,3,4]oxadiazol-2-yl)-imidazo[1,2-a]pyridin-3-yl]-phenyl}-3-(2,2,2-trifluoro-ethyl)-urea]
5 | <5 | > 10 | CC(C)Oc1cc(NC(=O)NCC(F)(F)F)cc(-c2cnc3cc(-c4nccc(C(C)(C)CO)n4)ccn23)c1 [Compound F-27, 1-(3-{7-[4-(2-Hydroxy-1,1-dimethylethyl)-pyrimidin-2-yl]-imidazo[1,2-a]pyridin-3-yl}-5-isopropoxy-phenyl)-3-(2,2,2-trifluoro-ethyl)-urea]
6 | <5 | > 10 | CC(C)Oc1cc(NC(=O)NCC(F)(F)F)cc(-c2cnc3cc(-c4ncc(F)c(N)n4)ccn23)c1 [Compound F-1, 1-{3-[7-(4-Amino-5-fluoro-pyrimidin-2-yl)-imidazo[1,2-a]pyridin-3-yl]-5-isopropoxy-phenyl}-3-(2,2,2-trifluoro-ethyl)-urea]
7 | <5 | > 10 | Cc1nc(-c2ccn3c(-c4cc(NC(=O)NCC(F)(F)F)cc(OC(C)C)c4)cnc3c2)ccc1F [Compound F-3, 1-{3-[7-(5-Fluoro-6-methyl-pyridin-2-yl)-imidazo[1,2-a]pyridin-3-yl]-5-isopropoxy-phenyl}-3-(2,2,2-trifluoro-ethyl)-urea]
8 | <5 | > 10 | COCc1cc(NC(=O)NCC(F)(F)F)cc(-c2cnc3cc(-c4nnc(C)o4)ccn23)c1 [Compound F-7, 1-{3-Methoxymethyl-5-[7-(5-methyl-[1,3,4]oxadiazol-2-yl)-imidazo[1,2-a]pyridin-3-yl]-phenyl}-3-(2,2,2-trifluoro-ethyl)-urea]
9 | <5 | > 10 | CC(C)Oc1cc(NC(=O)NCC(F)(F)F)cc(-c2cnc3cc(N4CCC(F)(F)CC4)ccn23)c1 [Compound F-13, 1-{3-[7-(4,4-Difluoro-piperidin-1-yl)-imidazo[1,2-a]pyridin-3-yl]-5-isopropoxy-phenyl}-3-(2,2,2-trifluoro-ethyl)-urea]
10 | <5 | > 10 | CC(C)Oc1cc(NC(=O)NCC(F)(F)F)cc(-c2cnc3cc(OCCO)ccn23)c1 [Compound F-17, 1-{3-[7-(2-Hydroxy-ethoxy)-imidazo[1,2-a]pyridin-3-yl]-5-isopropoxy-phenyl}-3-(2,2,2-trifluoro-ethyl)-urea]
11 | <5 | > 10 | CC(C)Oc1cc(NC(=O)NCC(F)(F)F)cc(-c2cnc3cc(-c4nncs4)ccn23)c1.Cl [Compound F-19, 1-[3-Isopropoxy-5-(7-[1,3,4]thiadiazol-2-yl-imidazo[1,2-a]pyridin-3-yl)-phenyl]-3-(2,2,2-trifluoro-ethyl)-urea]
12 | <5 | > 10 | Cc1nnc(-c2ccn3c(-c4cc(NC(=O)NCC(F)(F)F)cc(OC(C)C)c4)cnc3c2)s1.Cl [Compound F-20, 1-{3-Isopropoxy-5-[7-(5-methyl-[1,3,4]thiadiazol-2-yl)-imidazo[1,2-a]pyridin-3-yl]-phenyl}-3-(2,2,2-trifluoro-ethyl)-urea]
13 | <5 | > 10 | CC(C)Oc1cc(NC(=O)NCC(F)(F)F)cc(-c2cnc3cc(OCCCO)ccn23)c1 [Compound F-18, 1-{3-[7-(3-Hydroxy-propoxy)-imidazo[1,2-a]pyridin-3-yl]-5-isopropoxy-phenyl}-3-(2,2,2-trifluoro-ethyl)-urea]
14 | <5 | > 10 | CC(C)Oc1cc(NC(=O)NCC(F)(F)F)cc(-c2cnc3cc(-c4ccnc(C(F)(F)F)n4)ccn23)c1 [Compound F-8, 1-{3-Isopropoxy-5-[7-(2-trifluoromethyl-pyrimidin-4-yl)-imidazo[1,2-a]pyridin-3-yl]-phenyl}-3-(2,2,2-trifluoro-ethyl)-urea]
15 | <5 | > 10 | COCc1cc(NC(=O)NCC(F)(F)F)cc(-c2cnc3cc(-c4ccnc(C(F)(F)F)n4)ccn23)c1 [Compound F-9, 1-{3-Methoxymethyl-5-[7-(2-trifluormethyl-pyrimidin-4-yl)-imidazo[1,2-a]pyridin-3-yl]-phenyl}-3-(2,2,2-trifluoro-ethyl)-urea]
16 | <5 | > 10 | CCNC(=O)Nc1cc(OC(C)C)cc(-c2cnc3cc(-c4nnc(C)s4)ccn23)c1 [Compound F-23, 1-Ethyl-3-{3-isopropoxy-5-[7-(5-methyl-[1,3,4]thiadiazol-2-yl)-imidazo[1,2-a]pyridin-3-yl]-phenyl}-urea]
17 | <5 | > 10 | CCOc1cc(NC(=O)NCC(F)(F)F)cc(-c2cnc3cc(-c4nnc(C)o4)ccn23)c1 [Compound F-15, 1-{3-Ethoxy-5-[7-(5-methyl-[1,3,4]oxadiazol-2-yl)-imidazo[1,2-a]pyridin-3-yl]-phenyl}-3-(2,2,2-trifluoro-ethyl)-urea]
18 | 5.04 | > 10 | CCNC(=O)Nc1cc(OC(C)C)cc(-c2cnc3cc(-c4nncs4)ccn23)c1 [Compound F-10, 1-Ethyl-3-[3-isopropoxy-5-(7-[1,3,4]thiadiazol-2-yl-imidazo[1,2-a]pyridin-3-yl)-phenyl]-urea]
19 | <5 | > 10 | CCOc1cc(NC(=O)NCC(F)(F)F)cc(-c2cnc3cc(-c4ccnc(C(F)(F)F)n4)ccn23)c1 [Compound F-16, 1-{3-Ethoxy-5-[7-(2-trifluoromethyl-pyrimidin-4-yl)-imidazo[1,2-a]pyridin-3-yl]-phenyl}-3-(2,2,2-trifluoro-ethyl)-urea]
20 | <5 | > 10 | CC(C)Oc1cc(NC(=O)NCC(F)(F)F)cc(-c2cnc3cc(C(=O)C4CC4)ccn23)c1 [Compound F-6, 1-[3-(7-Cyclopropanecarbonyl-imidazo[1,2-a]pyridin-3-yl)-5-isopropoxy-phenyl]-3-(2,2,2-trifluoro-ethyl)-urea]

Row | SMILES | Ba/F3-flt3 − IL3 pIC50 (Ba/F3-Flt3 cells [1]) | IC50 (Ba/F3-Flt3 cells [2]) [µM]
21 | Cc1nnc(-c2ccn3c(-c4cc(NC(=O)NCC(F)(F)F)cc(OC5CCC5)c4)cnc3c2)o1 [Compound F-11, 1-{3-Cyclobutoxy-5-[7-(5-methyl-[1,3,4]oxadiazol-2-yl)-imidazo[1,2-a]pyridin-3-yl]-phenyl}-3-(2,2,2-trifluoro-ethyl)-urea] | <5 | > 10
